What was measured:
[1] = target: Serine/threonine-protein kinase RIO2 (Homo sapiens) (UniProt Q9BVS4); assay: Selectivity interaction (KinomeScan (DiscoverX)) EUB0001049a RIOK2; conditions: at 1 µM
[2] = target: Dual specificity protein kinase CLK2 (Homo sapiens, UniProt P49760); assay: Selectivity interaction (Ambit KINOMEscan and KiNATiv profiling in Jurkat cells) EUB0000090b CLK2; assay type: cell-based; conditions: at 1 µM
[3] = target: Serine/threonine-protein kinase N1 (Homo sapiens, UniProt Q16512); assay: Selectivity interaction (Ambit KINOMEscan and KiNATiv profiling in Jurkat cells) EUB0000090b PKN1; assay type: cell-based; conditions: at 1 µM
[4] = target: Serine/threonine-protein kinase WNK1 (Homo sapiens) (UniProt Q9H4A3); assay: Selectivity interaction (ActivX KiNativ screen (kinase selectivity in THP-1 cell lysates)) EUB0000639a WNK1; assay type: subcellular; conditions: lysate, at 0.01 µM
[5] = target: MAP kinase-interacting serine/threonine-protein kinase 2 (Homo sapiens, UniProt Q9HBH9); assay: Selectivity interaction (Kinase panel (Carna Biosciences)) EUB0001542aTs MKNK2; conditions: at 1 µM
[6] = target: Ribosomal protein S6 kinase alpha-2 (Homo sapiens) (UniProt Q15349); assay: Selectivity interaction (Kinase panel (Z-LYTE Assay)) EUB0001632a RPS6KA2; conditions: at 10 µM
[7] = target: STE20/SPS1-related proline-alanine-rich protein kinase (Homo sapiens) (UniProt Q9UEW8); assay: Selectivity interaction (LanthaScreen Eu Kinase Binding Assay) EUB0001632a STK39; conditions: at 10 µM
[8] = target: Serine/threonine-protein kinase Nek7 (Homo sapiens) (UniProt Q8TDX7); assay: Selectivity interaction (KinomeScan (DiscoverX)) EUB0000695a NEK7; conditions: at 100 nM
[9] = target: Dual specificity protein kinase CLK1 (Homo sapiens, UniProt P49759); conditions: at 10 µM
[10] = target: Receptor-interacting serine/threonine-protein kinase 2 (Homo sapiens, UniProt O43353); assay: Selectivity interaction (KinomeScan (DiscoverX)) EUB0000595a RIPK2; conditions: at 10 µM
[11] = target: Homeodomain-interacting protein kinase 2 (Homo sapiens, UniProt Q9H2X6); assay: Selectivity interaction (KinomeScan (DiscoverX)) EUB0000618a HIPK2; conditions: at 10 µM
[12] = target: T1, Dual specificity mitogen-activated protein kinase kinase 5 (Homo sapiens) (UniProt Q13163); assay: Selectivity interaction (KinomeScan (DiscoverX)) EUB0000618a MAP2K5; conditions: at 10 µM
T1 sequence (whole entry): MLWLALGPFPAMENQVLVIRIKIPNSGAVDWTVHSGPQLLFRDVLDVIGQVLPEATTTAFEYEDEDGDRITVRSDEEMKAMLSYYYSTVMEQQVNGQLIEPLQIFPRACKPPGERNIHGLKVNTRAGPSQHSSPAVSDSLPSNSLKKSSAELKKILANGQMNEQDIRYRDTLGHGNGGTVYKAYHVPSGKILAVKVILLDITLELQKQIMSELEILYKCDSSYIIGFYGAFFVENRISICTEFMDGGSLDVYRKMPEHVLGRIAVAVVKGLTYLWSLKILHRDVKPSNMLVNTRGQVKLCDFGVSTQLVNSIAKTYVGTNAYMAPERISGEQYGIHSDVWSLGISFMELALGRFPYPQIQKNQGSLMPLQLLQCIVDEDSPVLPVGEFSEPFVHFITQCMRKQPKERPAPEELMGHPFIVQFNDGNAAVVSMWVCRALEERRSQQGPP

[13] = target: T2, Ephrin type-B receptor 4 (Homo sapiens) (UniProt P54760); assay: Selectivity interaction (SelectScreen profiling (Invitrogen)) EUB0000607a EPHB4; conditions: at 2 µM
T2 sequence (whole entry): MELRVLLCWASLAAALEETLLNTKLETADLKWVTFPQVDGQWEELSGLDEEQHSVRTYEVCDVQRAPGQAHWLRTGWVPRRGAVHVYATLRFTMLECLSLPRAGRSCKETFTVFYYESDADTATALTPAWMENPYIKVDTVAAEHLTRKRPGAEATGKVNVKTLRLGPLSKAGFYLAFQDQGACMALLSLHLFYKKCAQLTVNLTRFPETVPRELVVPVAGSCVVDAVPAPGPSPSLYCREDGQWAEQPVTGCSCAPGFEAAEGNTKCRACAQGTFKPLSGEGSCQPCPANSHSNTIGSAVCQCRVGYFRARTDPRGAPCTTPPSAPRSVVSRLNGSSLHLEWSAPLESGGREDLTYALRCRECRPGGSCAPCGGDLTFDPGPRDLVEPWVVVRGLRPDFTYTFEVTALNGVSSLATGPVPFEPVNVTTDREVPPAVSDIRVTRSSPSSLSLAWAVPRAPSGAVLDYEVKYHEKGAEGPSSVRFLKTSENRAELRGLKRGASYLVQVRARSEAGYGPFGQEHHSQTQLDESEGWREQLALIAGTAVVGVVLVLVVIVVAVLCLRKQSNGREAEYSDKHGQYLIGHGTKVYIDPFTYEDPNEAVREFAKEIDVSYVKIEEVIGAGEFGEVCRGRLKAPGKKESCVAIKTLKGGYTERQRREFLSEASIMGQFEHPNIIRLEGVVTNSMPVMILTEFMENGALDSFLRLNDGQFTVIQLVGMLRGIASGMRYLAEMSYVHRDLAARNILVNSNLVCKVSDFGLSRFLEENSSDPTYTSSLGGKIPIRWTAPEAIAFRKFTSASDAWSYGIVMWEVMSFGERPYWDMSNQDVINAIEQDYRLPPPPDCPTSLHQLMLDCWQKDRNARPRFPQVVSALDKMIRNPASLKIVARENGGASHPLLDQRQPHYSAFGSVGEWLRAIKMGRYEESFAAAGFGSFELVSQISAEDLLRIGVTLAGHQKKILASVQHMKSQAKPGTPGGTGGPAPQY

[14] = target: LIM domain kinase 1 (Homo sapiens) (UniProt P53667); assay: Selectivity interaction (KinomeScan (DiscoverX)) EUB0000607a LIMK1; conditions: at 10 µM
[15] = target: MAP/microtubule affinity-regulating kinase 3 (Homo sapiens) (UniProt P27448); assay: Selectivity interaction (Kinase panel (KiNativ target engagement assay in Jurkat cells)) EUB0001635a MARK3; assay type: cell-based; conditions: at 1 µM
[16] = target: Serine/threonine-protein kinase Nek6 (Homo sapiens) (UniProt Q9HC98); assay: Selectivity interaction (Kinase panel (KiNativ target engagement assay in Jurkat cells)) EUB0001635a NEK6; assay type: cell-based; conditions: Selectivity number of off-targets 0.0, Selectivity number of targets 233.0, Source Knowledge https://www.sciencedirect.com/science/article/pii/S2451945619300674?via%3Dihub, at 1 µM
[17] = target: Substance-P receptor (Homo sapiens) (UniProt P25103); assay: Selectivity interaction (Panel of kinases, GPCRs, ion channels and transporters (enzymatic assay)) EUB0000223bCl TACR1
Chain of Substance-P receptor (Homo sapiens) (P25103 whole entry): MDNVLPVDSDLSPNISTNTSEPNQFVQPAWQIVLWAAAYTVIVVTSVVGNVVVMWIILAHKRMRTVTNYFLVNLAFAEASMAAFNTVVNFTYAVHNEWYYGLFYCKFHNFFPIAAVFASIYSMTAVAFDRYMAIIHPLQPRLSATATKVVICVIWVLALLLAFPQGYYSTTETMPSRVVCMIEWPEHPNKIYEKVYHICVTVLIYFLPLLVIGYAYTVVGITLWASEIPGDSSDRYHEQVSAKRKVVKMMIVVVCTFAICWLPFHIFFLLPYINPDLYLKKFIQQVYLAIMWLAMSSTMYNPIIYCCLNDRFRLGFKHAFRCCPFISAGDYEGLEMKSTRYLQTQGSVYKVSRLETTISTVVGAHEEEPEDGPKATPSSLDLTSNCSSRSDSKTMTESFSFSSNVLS

Chain of MAP/microtubule affinity-regulating kinase 3 (Homo sapiens) (P27448 whole entry, looked up): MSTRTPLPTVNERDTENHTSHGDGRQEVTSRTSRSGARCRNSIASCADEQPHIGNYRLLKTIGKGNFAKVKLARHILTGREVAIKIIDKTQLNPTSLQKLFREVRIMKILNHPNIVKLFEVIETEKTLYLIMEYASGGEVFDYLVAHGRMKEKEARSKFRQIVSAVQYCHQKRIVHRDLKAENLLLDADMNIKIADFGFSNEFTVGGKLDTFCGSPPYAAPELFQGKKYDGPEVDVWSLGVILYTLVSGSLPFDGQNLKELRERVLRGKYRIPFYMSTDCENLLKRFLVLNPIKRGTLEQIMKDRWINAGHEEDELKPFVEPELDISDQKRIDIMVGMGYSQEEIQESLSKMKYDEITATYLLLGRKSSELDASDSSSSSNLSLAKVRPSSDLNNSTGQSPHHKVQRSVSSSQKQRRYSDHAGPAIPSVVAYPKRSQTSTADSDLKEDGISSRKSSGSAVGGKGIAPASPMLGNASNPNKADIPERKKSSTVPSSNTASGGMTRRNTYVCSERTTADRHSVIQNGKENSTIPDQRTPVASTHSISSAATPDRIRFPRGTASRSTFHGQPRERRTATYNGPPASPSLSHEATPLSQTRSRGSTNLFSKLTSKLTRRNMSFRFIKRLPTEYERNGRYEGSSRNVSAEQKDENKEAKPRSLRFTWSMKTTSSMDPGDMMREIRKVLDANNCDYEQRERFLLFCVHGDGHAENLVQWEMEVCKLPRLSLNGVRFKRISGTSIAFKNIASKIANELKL
Chain of Serine/threonine-protein kinase Nek7 (Homo sapiens) (Q8TDX7 whole entry, looked up): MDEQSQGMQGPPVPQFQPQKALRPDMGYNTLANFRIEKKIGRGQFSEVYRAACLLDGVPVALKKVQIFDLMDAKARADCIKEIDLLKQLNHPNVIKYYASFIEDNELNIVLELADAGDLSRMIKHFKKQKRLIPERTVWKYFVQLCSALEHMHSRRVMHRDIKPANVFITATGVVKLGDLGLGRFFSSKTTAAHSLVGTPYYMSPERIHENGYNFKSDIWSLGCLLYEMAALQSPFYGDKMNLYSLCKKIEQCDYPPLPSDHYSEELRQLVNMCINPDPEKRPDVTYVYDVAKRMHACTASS
Chain of LIM domain kinase 1 (Homo sapiens) (P53667 whole entry, looked up, the tested form may be a part): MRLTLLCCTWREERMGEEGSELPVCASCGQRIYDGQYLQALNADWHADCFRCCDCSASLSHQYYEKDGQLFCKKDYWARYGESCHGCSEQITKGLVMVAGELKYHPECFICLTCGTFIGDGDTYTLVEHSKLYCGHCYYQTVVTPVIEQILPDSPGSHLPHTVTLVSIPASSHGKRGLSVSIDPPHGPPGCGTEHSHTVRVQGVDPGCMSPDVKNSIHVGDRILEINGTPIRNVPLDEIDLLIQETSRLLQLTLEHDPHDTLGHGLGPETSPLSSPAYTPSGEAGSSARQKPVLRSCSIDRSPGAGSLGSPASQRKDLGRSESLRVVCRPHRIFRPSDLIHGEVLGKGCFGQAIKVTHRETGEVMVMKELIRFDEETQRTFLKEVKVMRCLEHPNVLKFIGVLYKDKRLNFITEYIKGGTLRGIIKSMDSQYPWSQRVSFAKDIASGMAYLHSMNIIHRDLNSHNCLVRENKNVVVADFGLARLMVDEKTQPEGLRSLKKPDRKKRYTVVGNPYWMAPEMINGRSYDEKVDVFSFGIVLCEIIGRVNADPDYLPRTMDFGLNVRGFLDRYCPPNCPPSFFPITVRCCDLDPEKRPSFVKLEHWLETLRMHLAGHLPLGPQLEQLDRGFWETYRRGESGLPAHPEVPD
Chain of Serine/threonine-protein kinase RIO2 (Homo sapiens) (Q9BVS4 whole entry, looked up): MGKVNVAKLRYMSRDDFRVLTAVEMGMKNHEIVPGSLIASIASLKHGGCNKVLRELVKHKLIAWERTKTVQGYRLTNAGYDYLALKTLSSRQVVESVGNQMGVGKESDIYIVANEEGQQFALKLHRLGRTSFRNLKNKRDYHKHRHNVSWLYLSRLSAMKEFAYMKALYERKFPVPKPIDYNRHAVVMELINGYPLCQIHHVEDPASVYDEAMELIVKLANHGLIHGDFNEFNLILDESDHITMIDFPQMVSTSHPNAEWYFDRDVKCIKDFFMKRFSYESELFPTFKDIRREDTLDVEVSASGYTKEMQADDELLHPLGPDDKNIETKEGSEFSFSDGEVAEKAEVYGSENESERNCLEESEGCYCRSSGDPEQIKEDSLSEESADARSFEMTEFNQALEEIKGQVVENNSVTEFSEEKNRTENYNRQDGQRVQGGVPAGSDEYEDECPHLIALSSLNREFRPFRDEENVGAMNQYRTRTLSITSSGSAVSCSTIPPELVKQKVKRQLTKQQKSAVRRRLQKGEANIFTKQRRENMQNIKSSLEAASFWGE
Chain of Dual specificity protein kinase CLK2 (P49760 whole entry, looked up): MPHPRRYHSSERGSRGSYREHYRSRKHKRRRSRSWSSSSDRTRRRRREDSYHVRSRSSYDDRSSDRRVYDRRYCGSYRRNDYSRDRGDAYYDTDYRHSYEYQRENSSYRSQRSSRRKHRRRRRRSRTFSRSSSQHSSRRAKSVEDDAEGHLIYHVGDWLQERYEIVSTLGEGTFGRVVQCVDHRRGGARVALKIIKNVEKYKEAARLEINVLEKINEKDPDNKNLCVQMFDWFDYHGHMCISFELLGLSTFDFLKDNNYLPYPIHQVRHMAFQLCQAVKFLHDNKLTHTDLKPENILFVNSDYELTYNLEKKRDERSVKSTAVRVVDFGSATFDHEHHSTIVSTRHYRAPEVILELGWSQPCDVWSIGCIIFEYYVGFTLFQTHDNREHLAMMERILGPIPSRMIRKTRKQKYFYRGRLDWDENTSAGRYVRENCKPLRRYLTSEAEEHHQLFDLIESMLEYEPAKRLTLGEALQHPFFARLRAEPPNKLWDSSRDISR
Chain of Ribosomal protein S6 kinase alpha-2 (Homo sapiens) (Q15349 whole entry): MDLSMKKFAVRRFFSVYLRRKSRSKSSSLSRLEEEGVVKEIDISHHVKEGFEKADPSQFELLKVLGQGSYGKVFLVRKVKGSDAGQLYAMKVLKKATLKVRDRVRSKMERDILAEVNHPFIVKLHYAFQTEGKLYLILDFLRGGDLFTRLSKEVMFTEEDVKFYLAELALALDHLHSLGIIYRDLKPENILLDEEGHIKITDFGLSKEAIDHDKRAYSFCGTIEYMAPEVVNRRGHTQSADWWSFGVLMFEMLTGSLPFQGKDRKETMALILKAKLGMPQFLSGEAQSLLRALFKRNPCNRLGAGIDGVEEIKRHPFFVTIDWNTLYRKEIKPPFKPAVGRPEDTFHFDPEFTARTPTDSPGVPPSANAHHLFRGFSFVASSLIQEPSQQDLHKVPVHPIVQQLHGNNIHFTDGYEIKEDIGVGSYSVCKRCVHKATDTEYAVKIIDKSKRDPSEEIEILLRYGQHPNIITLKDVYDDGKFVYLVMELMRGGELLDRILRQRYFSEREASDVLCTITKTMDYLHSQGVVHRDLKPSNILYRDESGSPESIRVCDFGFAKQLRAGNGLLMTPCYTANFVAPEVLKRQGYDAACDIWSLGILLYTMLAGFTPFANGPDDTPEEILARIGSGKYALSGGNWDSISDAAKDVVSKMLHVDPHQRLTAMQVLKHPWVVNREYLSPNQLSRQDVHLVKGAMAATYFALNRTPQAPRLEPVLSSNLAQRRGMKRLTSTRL
Chain of Serine/threonine-protein kinase Nek6 (Homo sapiens) (Q9HC98 whole entry): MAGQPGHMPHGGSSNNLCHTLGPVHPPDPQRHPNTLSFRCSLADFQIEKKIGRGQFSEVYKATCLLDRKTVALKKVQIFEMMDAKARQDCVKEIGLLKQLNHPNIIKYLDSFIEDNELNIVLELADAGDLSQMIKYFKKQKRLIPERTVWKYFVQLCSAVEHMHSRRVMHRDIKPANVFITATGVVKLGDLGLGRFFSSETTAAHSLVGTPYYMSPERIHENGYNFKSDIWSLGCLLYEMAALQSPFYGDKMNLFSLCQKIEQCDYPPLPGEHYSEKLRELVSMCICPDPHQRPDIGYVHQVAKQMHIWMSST
Chain of Dual specificity protein kinase CLK1 (P49759 whole entry, looked up): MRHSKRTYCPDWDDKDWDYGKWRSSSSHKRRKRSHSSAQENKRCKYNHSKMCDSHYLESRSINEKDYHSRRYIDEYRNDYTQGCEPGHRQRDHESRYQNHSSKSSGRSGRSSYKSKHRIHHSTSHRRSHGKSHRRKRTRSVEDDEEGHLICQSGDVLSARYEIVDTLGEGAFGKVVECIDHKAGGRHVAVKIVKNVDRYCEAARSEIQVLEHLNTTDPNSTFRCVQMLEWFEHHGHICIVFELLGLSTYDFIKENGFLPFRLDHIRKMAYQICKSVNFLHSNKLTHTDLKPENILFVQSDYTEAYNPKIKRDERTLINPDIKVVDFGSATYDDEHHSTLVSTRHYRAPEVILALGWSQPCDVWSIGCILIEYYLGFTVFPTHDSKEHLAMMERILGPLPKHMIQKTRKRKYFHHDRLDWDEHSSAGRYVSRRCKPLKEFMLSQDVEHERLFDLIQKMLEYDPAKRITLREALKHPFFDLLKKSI

## COc1cc(Nc2nc(C)cc(-c3cnn4nc(OC)ccc34)n2)cc(C(F)(F)F)c1
[1]
  % of control: 87%

## CN(C)C/C=C/C(=O)Nc1ccc(C(=O)N2CCCC(Nc3ncc(Cl)c(-c4c[nH]c5ccccc45)n3)C2)cc1 (stereo not drawn)
[2]
  % of control: 55%
[3]
  % of control: 94%

## CC[C@@H]1[C@H](F)C(=O)N[C@@H]1COc1nccc2cc(C(N)=O)c(OC)cc12 [ZIMLOVISERTIB]
[4]
  % of inhibition: 3.3%

## Cn1cc(Nc2nccc(N3CC4CCC(C3)N4C(=O)[C@@H]3CC3(F)F)n2)cn1
[5]
  % of inhibition: 68%

## Cn1cc(-n2cnc3c(NCc4nc5cc(Cl)c(Cl)cc5[nH]4)nc(N4CCOCC4)nc32)cn1
[6]
  % of control: 1.22%
[7]
  % of inhibition: -29.3%

## Cc1cc(F)c(C(=O)Nc2cccc(-c3nncn3C(C)C)n2)cc1-n1cnc(C2CC2)c1
[8]
  % of control: 100%

## CCN(CC)CCCCNc1ncc2cc(-c3cc(OC)cc(OC)c3)c(NC(=O)NC(C)(C)C)nc2n1
[9]
  % of control: 100%

## COCC(=O)NC/C=C/c1ccc2ncnc(Nc3ccc(Oc4ccc(C)nc4)c(C)c3)c2c1 [CP-724714]
[10]
  % of control: 26%

## O[C@H]1CC[C@H](Nc2ncc3nc(Nc4c(F)cc(F)cc4F)n([C@H]4CCOC4)c3n2)CC1
[11]
  % of control: 86%
[12]
  % of control: 75%

## CNC(=O)Nc1ccc(-c2nc(N3CC4CCC(C3)O4)c3cnn(C4CCC5(CC4)OCCO5)c3n2)cc1
[13]
  % of inhibition: -4%
[14]
  % of control: 95%

## C=CC(=O)Nc1ccc(C(=O)Nc2[nH]nc3c2CN(C(=O)N[C@H](CN(C)C)c2ccccc2)C3(C)C)cc1
[15]; Selectivity number of off-targets 0.0, Selectivity number of targets 233.0, Source Knowledge https://www.sciencedirect.com/science/article/pii/S2451945619300674?via%3Dihub
  % of engagement: 16.4%
[15]
  % of engagement: 19.1%
[16]
  % of engagement: 2.3%

## COc1cc(C(=O)N2CC[C@@H](O)[C@@H](N)C2)cc2nc(-c3cc4ccccc4n3CC3CC3)n(C)c12
[17]
  pXC50: < 4.4 M

Source: ChEMBL document CHEMBL5465560, “Selectivity Literature for EUbOPEN Chemogenomic Library” (2024)
